Data as given in PubChem BioAssay AID248 (DTP/NCI, 2004).
Where “and” joins values, the source holds several entries; their conditions need not be identical. Identical values can stand only once. Toxic doses and inconclusive results are not listed.

Tested on: L1210 leukemia ip in BDF1 mice, survival T/C
Assay: NCI In Vivo Anticancer Drug Screen. Data for tumor model L1210 Leukemia (intraperitoneal) in B6D2F1 (BDF1) mice
Details: endpoint: mean survival time, higher = longer survival
Procedure, shortened: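 Tumor cells were implanted, animals were treated, and survival was followed. The result divides the treated measurement by the vehicle-control measurement.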

[1] = dose: 100.0 mg/kg/injection, schedule: Q04DX003 (ip), vehicle: saline
[2] = dose: 200.0 mg/kg/injection, schedule: Q04DX003 (ip), vehicle: saline
[3] = dose: 400.0 mg/kg/injection, schedule: Q04DX003 (ip), vehicle: saline
[4] = dose: 50.0 mg/kg/injection, schedule: Q01DX009 (ip), vehicle: saline
[5] = dose: 100.0 mg/kg/injection, schedule: Q01DX009 (ip), vehicle: saline
[6] = dose: 100.0 mg/kg/injection, schedule: Q04DX003 (ip), vehicle: Klucel (hydroxypropylcellulose) (HPC)
[7] = dose: 12.5 mg/kg/injection, schedule: Q01DX009 (ip), vehicle: saline
[8] = dose: 25.0 mg/kg/injection, schedule: Q01DX009 (ip), vehicle: saline
[9] = dose: 100.0 mg/kg/injection, schedule: Q01DX001 (ip), vehicle: saline

## COC(=O)CCc1c[nH]c2ccc(N(CCCl)CCCl)cc12
dose: 0.06 mg/kg/injection, schedule: Q01DX015 (ip), vehicle: carboxymethylcellulose (CMC)
  T/C: 104 % of control
dose: 0.13 mg/kg/injection, schedule: Q01DX015 (ip), vehicle: carboxymethylcellulose (CMC)
  T/C: 105 % of control
dose: 0.25 mg/kg/injection, schedule: Q01DX015 (ip), vehicle: carboxymethylcellulose (CMC)
  T/C: 110 % of control
dose: 0.5 mg/kg/injection, schedule: Q01DX015 (ip), vehicle: carboxymethylcellulose (CMC)
  T/C: 120 % of control
dose: 1.0 mg/kg/injection, schedule: Q01DX015 (ip), vehicle: carboxymethylcellulose (CMC)
  T/C: 100 % of control
dose: 1.9 mg/kg/injection, schedule: Q01DX009 (ip), vehicle: other
  T/C: 118 % of control
dose: 3.0 mg/kg/injection, schedule: Q01DX015 (ip), vehicle: carboxymethylcellulose (CMC)
  T/C: 119 % of control
dose: 3.8 mg/kg/injection, schedule: Q04DX003 (ip), vehicle: saline
  T/C: 108 % of control
dose: 7.5 mg/kg/injection, schedule: Q04DX003 (ip), vehicle: saline
  T/C: 115 % of control
dose: 15.0 mg/kg/injection, schedule: Q01DX009 (ip), vehicle: other
  T/C: 123 % of control
dose: 30.0 mg/kg/injection, schedule: Q04DX003 (ip), vehicle: saline
  T/C: 177 % of control

## COc1ccc2c(c1)-c1c(ccc(OC)c1OC(=O)C(=O)c1ccccc1)CC(Cl)N(C)CC2.[O]=[Cr](=[O])([OH])[OH] (stereo not given)
[1]
  T/C: 89 % of control
[2]
  T/C: 89 % of control
[3]
  T/C: 90 % of control

## NCCO[Si](OCCN)(OCCN)OCCN
[4]
  T/C: 93 % of control
[5]
  T/C: 88 % of control

## COc1ccc2c(c1)CN(S(=O)(=O)c1ccc(C)cc1)c1ccccc1C2=O
[5]
  T/C: 89 % of control
dose: 200.0 mg/kg/injection, schedule: Q01DX009 (ip), vehicle: saline
  T/C: 96 % of control
dose: 400.0 mg/kg/injection, schedule: Q01DX009 (ip), vehicle: saline
  T/C: 89 % of control

## CCOC(=O)C(C)CC(C)(C(=O)OCC)C(=O)OCC (stereo not given)
dose: 25.0 mg/kg/injection, schedule: Q04DX003 (ip), vehicle: Klucel (hydroxypropylcellulose) (HPC)
  T/C: 98 % of control
dose: 50.0 mg/kg/injection, schedule: Q01DX009 (ip), vehicle: Klucel (hydroxypropylcellulose) (HPC)
  T/C: 93 % of control
dose: 50.0 mg/kg/injection, schedule: Q04DX003 (ip), vehicle: Klucel (hydroxypropylcellulose) (HPC)
  T/C: 103 % of control
dose: 100.0 mg/kg/injection, schedule: Q01DX009 (ip), vehicle: Klucel (hydroxypropylcellulose) (HPC)
  T/C: 104 % of control
[6]
  T/C: 98 % of control and 103 % of control
dose: 200.0 mg/kg/injection, schedule: Q01DX009 (ip), vehicle: Klucel (hydroxypropylcellulose) (HPC)
  T/C: 100 % of control

## CC1=NN(c2ccccc2)C(=O)CC1
[6]
  T/C: 106 % of control
dose: 200.0 mg/kg/injection, schedule: Q04DX003 (ip), vehicle: Klucel (hydroxypropylcellulose) (HPC)
  T/C: 100 % of control
dose: 400.0 mg/kg/injection, schedule: Q04DX003 (ip), vehicle: Klucel (hydroxypropylcellulose) (HPC)
  T/C: 105 % of control

## COC(=O)c1[nH]cnc1/N=N\N(CCF)CCF
dose: 1.5 mg/kg/injection, schedule: Q01DX009 (ip), vehicle: carboxymethylcellulose (CMC)
  T/C: 120 % of control
dose: 3.0 mg/kg/injection, schedule: Q01DX009 (ip), vehicle: carboxymethylcellulose (CMC)
  T/C: 110 % of control
dose: 4.5 mg/kg/injection, schedule: Q01DX001 (ip), vehicle: carboxymethylcellulose (CMC)
  T/C: 102 % of control
dose: 5.0 mg/kg/injection, schedule: Q01DX001 (ip), vehicle: carboxymethylcellulose (CMC)
  T/C: 101 % of control
dose: 9.0 mg/kg/injection, schedule: Q01DX001 (ip), vehicle: carboxymethylcellulose (CMC)
  T/C: 112 % of control
dose: 10.0 mg/kg/injection, schedule: Q01DX001 (ip), vehicle: carboxymethylcellulose (CMC)
  T/C: 115 % of control
dose: 12.0 mg/kg/injection, schedule: Q01DX009 (ip), vehicle: carboxymethylcellulose (CMC)
  T/C: 91 % of control
dose: 14.4 mg/kg/injection, schedule: Q01DX009 (ip), vehicle: carboxymethylcellulose (CMC)
  T/C: 169 % of control
dose: 18.0 mg/kg/injection, schedule: Q01DX009 (ip), vehicle: carboxymethylcellulose (CMC)
  T/C: 95 % of control
dose: 40.0 mg/kg/injection, schedule: Q01DX009 (ip), vehicle: carboxymethylcellulose (CMC)
  T/C: 97 % of control
dose: 53.0 mg/kg/injection, schedule: Q01DX001 (ip), vehicle: carboxymethylcellulose (CMC)
  T/C: 154 % of control
dose: 80.0 mg/kg/injection, schedule: Q01DX001 (ip), vehicle: carboxymethylcellulose (CMC)
  T/C: 171 % of control

## c1cc[c]([Sn]([O][Sn]([c]2ccccc2)([c]2ccccc2)[c]2ccccc2)([c]2ccccc2)[c]2ccccc2)cc1
dose: 5.0 mg/kg/injection, schedule: Q01DX001 (ip), vehicle: saline
  T/C: 102 % of control
dose: 10.0 mg/kg/injection, schedule: Q01DX001 (ip), vehicle: saline
  T/C: 100 % of control
dose: 20.0 mg/kg/injection, schedule: Q01DX001 (ip), vehicle: saline
  T/C: 102 % of control
dose: 40.0 mg/kg/injection, schedule: Q01DX001 (ip), vehicle: saline
  T/C: 93 % of control

## Cc1cc(CSC2=NCCCN2)c(CSC2=NCCCN2)cc1C
dose: 6.25 mg/kg/injection, schedule: Q01DX001 (ip), vehicle: saline
  T/C: 96 % of control
dose: 6.25 mg/kg/injection, schedule: Q01DX009 (ip), vehicle: saline
  T/C: 100 % of control and 111 % of control
dose: 6.25 mg/kg/injection, schedule: Q04DX002 (ip), vehicle: saline with Tween-80
  T/C: 94 % of control
dose: 6.25 mg/kg/injection, schedule: Q04DX003 (ip), vehicle: saline
  T/C: 91 % of control
dose: 12.5 mg/kg/injection, schedule: Q01DX001 (ip), vehicle: saline
  T/C: 97 % of control
[7]
  T/C: 102 % of control and 92 % of control
dose: 12.5 mg/kg/injection, schedule: Q04DX002 (ip), vehicle: saline with Tween-80
  T/C: 97 % of control
dose: 12.5 mg/kg/injection, schedule: Q04DX003 (ip), vehicle: saline
  T/C: 90 % of control
dose: 25.0 mg/kg/injection, schedule: Q01DX001 (ip), vehicle: saline
  T/C: 99 % of control and 108 % of control
[8]
  T/C: 96 % of control and 101 % of control
dose: 25.0 mg/kg/injection, schedule: Q04DX002 (ip), vehicle: saline with Tween-80
  T/C: 100 % of control
dose: 25.0 mg/kg/injection, schedule: Q04DX002 (ip), vehicle: saline
  T/C: 87 % of control
dose: 25.0 mg/kg/injection, schedule: Q04DX003 (ip), vehicle: saline
  T/C: 89 % of control
[9]
  T/C: 93 % of control

## COC(=O)c1cc(C(=O)OC(C)(C)C)c(-c2ccc(OC)c(OC)c2)c2cc(OC)c(OC)cc12
[9]
  T/C: 100 % of control
dose: 200.0 mg/kg/injection, schedule: Q01DX001 (ip), vehicle: saline
  T/C: 101 % of control
dose: 400.0 mg/kg/injection, schedule: Q01DX001 (ip), vehicle: saline
  T/C: 103 % of control

## Cc1cc(Cl)c(C)cc1Cl
dose: 100.0 mg/kg/injection, schedule: Q01DX009 (ip), vehicle: saline sonified
  T/C: 107 % of control
dose: 100.0 mg/kg/injection, schedule: Q04DX003 (ip), vehicle: saline sonified
  T/C: 100 % of control
dose: 200.0 mg/kg/injection, schedule: Q01DX009 (ip), vehicle: saline sonified
  T/C: 110 % of control
dose: 200.0 mg/kg/injection, schedule: Q04DX003 (ip), vehicle: saline sonified
  T/C: 101 % of control
dose: 400.0 mg/kg/injection, schedule: Q01DX009 (ip), vehicle: saline sonified
  T/C: 102 % of control
dose: 400.0 mg/kg/injection, schedule: Q04DX003 (ip), vehicle: saline sonified
  T/C: 94 % of control

## CCOC(CN=Cc1ccccn1)OCC
[1]
  T/C: 97 % of control
[2]
  T/C: 91 % of control
[3]
  T/C: 90 % of control

## Nc1nc([Se])c2ncn(C3CC(O)C(CO)O3)c2n1 (stereo not given)
[7]
  T/C: 196 % of control
dose: 25.0 mg/kg/injection, schedule: Q01DX005 (ip), vehicle: saline
  T/C: 150 % of control and 151 % of control
[8]
  T/C: 171 % of control
dose: 50.0 mg/kg/injection, schedule: Q01DX005 (ip), vehicle: saline
  T/C: 123 % of control
[4]
  T/C: 150 % of control
